These results are taken from article PMC8068036, “Synthesis of New Biscoumarin Derivatives, In Vitro Cholinesterase Inhibition, Molecular Modelling and Antiproliferative Effect in A549 Human Lung Carcinoma Cells” (International Journal of Molecular Sciences, 2021).

The structures appear in SMILES notation. Where two headings read alike, the source gives them in different places.

One data set in a line: in vitro. Conditions: for CNS Predicted Availability: classification from PAMPA-BBB Pe; for Papp: PAMPA; for Papp / Pe ± S.E.M.: pH 7.4; for Pe ± S.E.M.: PAMPA-BBB. The method, then:
The parallel artificial membrane permeability assay (PAMPA) is used as a non-cell-based in vitro assay to predict BBB penetration and is carried out in a coated 96-well membrane filter. In our assays, the filter membrane of the donor plate was coated with PBL (Polar Brain Lipid, Avanti, Denver, CO, USA) in dodecane (4 µL of 20 mg mL^−1 PBL in dodecane), and the acceptor well was filled with 300 µL of phosphate buffered saline (PBS) (pH 7.4; VA). The tested compounds were first dissolved in DMSO, and the resulting mixture was diluted with PBS (pH 7.4) to reach the final concentration (40–100 µM) in the donor well. […] Three hundred microliters of the donor solution (VD) were added to the donor wells, and the donor filter plate was carefully placed onto the acceptor plate to ensure that the coated membrane was “in contact” with both the donor solution and the acceptor buffer. The test compound diffused from the donor well through the polar brain lipid membrane (area = 0.28 cm^2) to the acceptor well. The concentration of the tested compound in both the donor and acceptor wells was assessed after 3, 4, 5, and 6 h of incubation, respectively, in quadruplicate using a UV plate reader Synergy HT (Biotek, Winooski, VT, USA) at the maximum absorption wavelength of each compound. Additionally, solutions at the theoretical equilibrium of the given compound (i.e., the theoretical concentration if the donor and acceptor compartment were simply combined) were also prepared.

The next data set has as its target T1, hBChE (human plasma) (Homo sapiens, UniProt P06276).
T1 construct: Human plasma was used as a source of BChE; from tissue; host or cells: human plasma from heparinized blood
As to the kind of experiment: biochemical. The class given is biochemical. As to conditions: human plasma BChE, mean of at least three experiments; for IC50: read-out: IC50 ± S.E.M. hBChE. As to the method: (§1) Human recombinant AChE (EC 3.1.1.7), 5,5′-dithiobis(2-nitrobenzoic acid) (Ellman′s reagent, DTNB), phosphate buffer (PB, 0.1 M, pH 7.4), and acetylthiocholine (ATC) and butyrylthiocholine (BTC), were purchased from Sigma-Aldrich, Prague, Czech Republic. Human plasma was used as a source of BChE and was prepared from heparinized human blood. The blood was centrifuged for 20 min (4 °C, 2300× g) on a Hettich Universal 320R centrifuge. The plasma was separated and stored at […]. Polystyrene Nunc 96-well microplates with a flat bottom shape (ThermoFisher Scientific, Waltham, MA, USA) were used for measuring purposes.
(§2) All of the assays were carried out in a 0.1 M phosphate buffer, pH 7.4. The assay medium (100 µL) consisted of 40 µL of 0.1 M phosphate buffer (pH 7.4), 20 µL of 0.01 M DTNB, 10 µL of the enzyme, and 20 µL of 0.01 M substrate ATC/BTC iodide solution).
(§3) The tested compounds were preincubated for 5 min prior to use. The reaction was initiated immediately upon addition of 20 µL of the substrate. […] Each concentration was assayed in triplicate. Software GraphPad Prism 5 (San Diego, CA, USA) was used in the evaluation of the statistical data.

The next data set addresses T2, human recombinant AChE (Homo sapiens, UniProt P22303).
T2 construct: purchased Sigma-Aldrich, Prague, Czech Republic
As to the kind of experiment: biochemical. The class given is biochemical. Conditions: mean of at least three experiments; for IC50: read-out: IC50 ± S.E.M. hAChE. As to the method:
as §1, §2, §3

For the next data set, the system named is CCD-18Co fibroblasts. As to the kind of experiment: MTT assay, CCD-18Co. Format: cell-based. Conditions: for IC50: Homo sapiens, CCD-18Co. As to the method: (§4) Human lung carcinoma cell line A549 and CCD-18Co colon fibroblasts were purchased from the American Type Culture Collection (ATCC, Rockville, MD, USA). The A549 cells were cultured in a complete RPMI-1640 medium (Sigma-Aldrich, St. Louis, MO, USA), and CCD-18Co cells were cultured in an MEM medium (PAN-Biotech GmbH, Aidenbach, Germany). The media were supplemented with 10% fetal bovine serum (FBS; Biosera, Nuaille, France) and antibiotics (1% Antibiotic-Antimycotic 100× and 50 × 10^−3 g l^−1 gentamicin; Biosera) at 37 °C, 95% humidity, and 5% CO2.
(§5) Prior to the selected treatments, cells were seeded on 12-well μ-Chamber slides (ibidi GmbH, Martinsried, Germany) and 6 and/or 96-well plates (TPP, Trasadingen, Switzerland) and left to settle for 24 h. The biscoumarin derivative solutions (at concentrations ranging from 10–100 µM) were then added to cells for 24 or 48 h, and analysis was subsequently performed.
(§6) MTT assays were performed in order to evaluate changes in the metabolic activity of cells that had occurred as a consequence of treatment with the biscoumarin derivatives. A549 cells (15 × 10^3 cells/cm^2) and CCD-18Co ([…]) were seeded in 96-well microplates. The cells were treated for 24 and 48 h with different concentrations (10, 25, 35, 50, 65, 75, and 100 µM) of the derivatives. After the treatment, the MTT (3-(4,5-dimethylthiazol-2-yl)-2,5-diphenyltertrazolium bromide) solution in PBS (5 mg mL^−1) was added to each well. […]. The absorbance of formazan (λ = 584 nm) was measured using a BMG FLUOstar Optima spectrometer (BMG Labtech GmbH, Offenburg, Germany). The results were evaluated as percentages of the absorbance of the untreated control. Results are presented as the average percentage of cells from three independent experiments. IC50 values for the derivatives were extrapolated from a sigmoidal fit (dose–response curve) to the metabolic activity data using OriginPro 8.5.0 SR1 (OriginLab Corp., Northampton, MA, USA).
(In general: Tetrazolium assays rely on reduction of a dye to a coloured formazan, in cell work by metabolically active cells.)

Data set [1] concerns A549 cells. As to the kind of experiment: Cell cycle analysis (flow cytometry, PI). Format: cell-based, human. Conditions: 35 and 65 µM, 24 h. The method, then:
For flow cytometric analysis of the cell cycle distribution, floating and adherent cells were harvested together 24 h after treatment with the derivatives (35 and 65 µM), washed in cold PBS, fixed in cold 70% ethanol, and stored overnight at −20 °C. Prior to analysis, the cells were washed twice in PBS, resuspended in a staining solution (0.1% Triton X-100, 0.137 g L^−1 ribonuclease A and 0.02 g L^−1 propidium iodide—PI), and incubated in dark conditions at RT for 30 min. The DNA content was analyzed using a BD FACSCalibur flow cytometer (Becton Dickinson, San Jose, CA, USA) with a 488 nm argon-ion excitation laser, and fluorescence was detected using a 585/42 nm band-pass filter (FL-2). ModFit 3.0 software (Verity Software House, Topsham, ME, USA) was used to generate DNA content frequency histograms and to quantify the percentage of cells in the individual cell cycle phases. The results are presented as the average ratio of cells in the individual phase to all cells from three independent experiments.
(In general: In flow cytometry, cells or beads pass a laser one at a time.)

The subject of data set [2] is A549 cells. Kind of data set: MTT assay, A549. As to conditions: for Metabolic activity of A549 cells (in words): 10 to 100 μM, 24 and 48 h; for IC50: Homo sapiens. Format: cell-based, human. As to the method:
as §4, §5, §6

Setting [3] is: A549, 24 h, read-out: IC50 A549 24 h.
The mark [4] stands for this setting: A549, read-out: IC50 A549 48 h, 48 h.

T1 sequence (P06276 29-602): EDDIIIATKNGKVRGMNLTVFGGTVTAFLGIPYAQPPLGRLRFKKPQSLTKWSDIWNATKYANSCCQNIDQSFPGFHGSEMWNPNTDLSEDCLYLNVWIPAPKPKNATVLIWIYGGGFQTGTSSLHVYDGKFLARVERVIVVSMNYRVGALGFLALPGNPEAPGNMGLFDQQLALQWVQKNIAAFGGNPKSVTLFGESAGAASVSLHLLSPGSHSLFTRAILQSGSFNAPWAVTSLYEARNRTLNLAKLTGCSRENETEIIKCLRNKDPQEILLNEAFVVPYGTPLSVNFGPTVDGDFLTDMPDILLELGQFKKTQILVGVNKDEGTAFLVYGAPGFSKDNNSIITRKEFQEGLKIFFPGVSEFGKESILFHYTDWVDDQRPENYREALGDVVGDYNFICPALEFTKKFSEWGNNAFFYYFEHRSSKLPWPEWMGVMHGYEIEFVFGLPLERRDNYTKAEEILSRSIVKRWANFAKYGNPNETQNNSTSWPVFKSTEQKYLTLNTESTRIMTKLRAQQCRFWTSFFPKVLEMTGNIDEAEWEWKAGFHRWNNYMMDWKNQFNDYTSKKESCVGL
T2 sequence (P22303 32-614): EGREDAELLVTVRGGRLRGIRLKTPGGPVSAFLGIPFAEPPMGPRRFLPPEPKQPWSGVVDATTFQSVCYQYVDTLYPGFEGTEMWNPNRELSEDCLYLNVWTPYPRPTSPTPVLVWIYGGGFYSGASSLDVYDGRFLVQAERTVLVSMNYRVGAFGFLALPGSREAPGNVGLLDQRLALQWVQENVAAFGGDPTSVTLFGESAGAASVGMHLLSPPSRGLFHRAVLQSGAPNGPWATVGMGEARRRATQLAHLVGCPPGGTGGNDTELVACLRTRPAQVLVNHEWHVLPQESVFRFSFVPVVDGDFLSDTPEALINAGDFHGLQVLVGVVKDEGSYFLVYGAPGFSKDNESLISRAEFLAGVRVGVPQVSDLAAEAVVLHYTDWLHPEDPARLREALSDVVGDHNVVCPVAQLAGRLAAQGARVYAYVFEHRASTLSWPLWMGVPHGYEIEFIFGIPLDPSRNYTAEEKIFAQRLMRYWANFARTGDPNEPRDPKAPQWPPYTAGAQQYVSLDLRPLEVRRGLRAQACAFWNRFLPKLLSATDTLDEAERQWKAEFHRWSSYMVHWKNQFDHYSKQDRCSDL

Take `CNC(=C[N+](=O)[O-])NCCSCc1ccc(CN(C)C)o1` [Ranitidine, reference compound]: the “CNS Predicted Availability” value in the data set “in vitro” is recorded as “CNS− (CNS−: low BBB permeation predicted with Pe (×10^−6 cm s^−1) < 2.0)”.

In the case of `COC(=O)Cc1cc(=O)oc2cc(OCCCCCCCN3CCN(CCNC(=O)Cc4cc(=O)oc5cc(O)ccc45)CC3)ccc12` [12d], in “in vitro”, the Papp came to 2.11 ± 1.19 ×10⁻⁶ cm/s. Further, in the data set “in vitro”, the “Pe ± S.E.M.” value is 2.0–4.0 10^−6 cm s^−1. In addition, the “CNS Predicted Availability” value in “in vitro” is on record as “CNS+/− (CNS +/−: BBB permeation uncertain with Pe (×10^−6 cm s^−1) from 4.0 to 2)”. In addition, the IC50 at hBChE (human plasma) is 49 µM; on human recombinant AChE, 6.3 ± 0.4 µM; in the data set with CCD-18Co fibroblasts (24 h, read-out: IC50 CCD-18Co 24 h), greater than 100 µM; in the data set with CCD-18Co fibroblasts (read-out: IC50 CCD-18Co 48 h, 48 h) it was greater than 100 µM; in the data set with CCD-18Co fibroblasts (time not stated, read-out: IC50 CCD-18Co), greater than 100 µM; in the data set with A549 cells [2] (setting [3]) it was 94 µM. Moreover, the IC50 in the data set on A549 cells [2] (setting [4]) turned out to be 58 µM. The “Metabolic activity of CCD-18Co cells (in words)” value in the data set with CCD-18Co fibroblasts (24 or 48 h) is given as “significantly reduced metabolic activity only at a concentration of 100 μM”. Moreover, the “Cell cycle distribution, G0/G1 phase (in words)” value in the data set with A549 cells [1] is given as “increase in the percentage of the cell population in the G0/G1 phase”. In the data set with A549 cells [2], the “Metabolic activity of A549 cells (in words)” value is listed as “significant decrease”.

Consider `COC(=O)Cc1cc(=O)oc2cc(OCCCCCCN3CCN(CCNC(=O)Cc4cc(=O)oc5cc(O)ccc45)CC3)ccc12` [12c, Methyl 2-[7-({7-[4-(2-{[2-(7-hydroxy-2-oxo-2H-4-chromenyl)acetyl]amino}ethyl)piperazino]hexyl}oxy)-2-oxo-2H-4-chromenyl]acetate], for which the apparent permeability coefficient (Papp) in “in vitro” turned out to be 2.96 ± 0.73 ×10⁻⁶ cm/s. For the same compound, the “Pe ± S.E.M.” value in the data set “in vitro” is on record as 2.0–4.0 10^−6 cm s^−1. Further, the “CNS Predicted Availability” value in the data set “in vitro” was “CNS+/− (CNS +/−: BBB permeation uncertain with Pe (×10^−6 cm s^−1) from 4.0 to 2)”. Moreover, the IC50 is greater than 500 µM at hBChE (human plasma), 88.4 ± 12.6 µM on human recombinant AChE, greater than 100 µM with A549 cells [2] (setting [3]) and greater than 100 µM with A549 cells [2] (setting [4]). Further, the “Cell cycle distribution, G0/G1 phase (in words)” value in the data set with A549 cells [1] is listed as “increased the accumulation of cell population in the G0/G1 phase”. Moreover, the “Metabolic activity of A549 cells (in words)” value with A549 cells [2] is listed as “did not lose the ability to convert dye”.

Take `COC(=O)Cc1cc(=O)oc2cc(OCCCCN3CCN(CCNC(=O)Cc4cc(=O)oc5cc(O)ccc45)CC3)ccc12` [12b]: in “in vitro”, the “CNS Predicted Availability” value is given as “CNS− (CNS−: low BBB permeation predicted with Pe (×10^−6 cm s^−1) < 2.0)”. For the same compound, on hBChE (human plasma), the “IC50 ± S.E.M. hBChE” value is listed as “did not show inhibitory activity”. Further, the half-inhibitory concentration (IC50) on hBChE (human plasma) is greater than 500 µM; on human recombinant AChE, greater than 500 µM; with A549 cells [2] (setting [3]), greater than 100 µM; with A549 cells [2] (setting [4]), greater than 100 µM. Moreover, on human recombinant AChE, the “IC50 ± S.E.M. hAChE” value was “did not show inhibitory activity”. For the same compound, the “Metabolic activity of A549 cells (in words)” value with A549 cells [2] is on record as “did not lose the ability to convert dye”.

`Nc1c2c(nc3ccccc13)CCCC2` [Tacrine, tacrine, reference compound]: the “CNS Predicted Availability” value in the data set “in vitro” was “CNS+ (CNS+: high BBB permeation predicted with Pe (×10^−6 cm s^−1) > 4.0)”.

By Papp is commonly meant a coefficient for how fast a substance crosses the barrier. By IC50 is commonly meant the concentration needed to halve the response being measured.
